Assay results taken from the NIST ThermoML archive (doi:10.1016/j.fluid.2016.04.009).

Tests used:
[1] = refractive index (Na D-line) (dimensionless); conditions: 101.33 kPa, Liquid, Standard Abbe refractometry
[2] = molar heat capacity at constant pressure; conditions: 298.15 K; 101.33 kPa; Liquid; Drop calorimetry
[3] = for viscosity / mass density: 101.33 kPa; for viscosity / mass density / surface tension liquid-gas: Liquid; for viscosity: Concentric cylinders viscometry; for mass density: Vibrating tube method; for surface tension liquid-gas: Pendant drop shape; for Normal melting temperature: Crystal, DTA
[4] = Molar enthalpy of transition or fusion; conditions: Crystal; DSC

CCCC[n+]1ccn(C)c1.O=S(=O)([N-]S(=O)(=O)C(F)(F)F)C(F)(F)F
[1]
Conditions | refractive index
288.15 K | 1.43015
293.15 K | 1.4286
298.15 K | 1.42705
303.15 K | 1.4255
308.15 K | 1.42396
313.15 K | 1.42241
318.15 K | 1.42086

Conditions | molar heat capacity at constant pressure [J/K/mol]
[2] | 565.73

CCCC[N+]1(C)CCCCC1.O=S(=O)([N-]S(=O)(=O)C(F)(F)F)C(F)(F)F
Conditions | mass density [kg/m3] | refractive index | surface tension liquid-gas [mN/m] | viscosity [mPa·s]
[1], 288.15 K | – | 1.43251 | – | –
[1], 293.15 K | – | 1.43105 | – | –
[1], 298.15 K | – | 1.42959 | – | –
[1], 303.15 K | – | 1.42813 | – | –
[1], 308.15 K | – | 1.42667 | – | –
[1], 313.15 K | – | 1.42521 | – | –
[1], 318.15 K | – | 1.42375 | – | –
[3], 293.15 K | 1386.9 | – | – | 261.28
[3], 298.15 K | 1382.5 | – | – | 189.11
[3], 298.2 K | – | – | 34.14 | –
[3], 303.15 K | 1378.1 | – | – | 141.44
[3], 308.15 K | 1373.8 | – | – | 108.27
[3], 308.2 K | – | – | 33.65 | –
[3], 313.15 K | 1369.5 | – | – | 84.87
[3], 318.15 K | 1365.2 | – | – | 67.24
[3], 318.2 K | – | – | 33.17 | –
[3], 323.15 K | 1361 | – | – | 54.34
[3], 328.15 K | 1356.7 | – | – | 44.55
[3], 328.2 K | – | – | 32.68 | –
[3], 333.15 K | 1352.5 | – | – | 37.09
[3], 338.15 K | 1348.3 | – | – | 31.09
[3], 338.2 K | – | – | 32.2 | –
[3], 343.15 K | 1344.1 | – | – | 26.41
[3], 343.2 K | – | – | 31.96 | –
[3], 348.15 K | 1340 | – | – | 22.65
[3], 353.15 K | 1335.9 | – | – | 19.65
[3], 358.15 K | 1331.8 | – | – | 17.09
[3], 363.15 K | 1327.7 | – | – | 15.01

Conditions | molar heat capacity at constant pressure [J/K/mol]
[2] | 607.52

Cc1ccc[n+](CC(C)C)c1.O=S(=O)([N-]S(=O)(=O)C(F)(F)F)C(F)(F)F
Conditions | mass density [kg/m3] | refractive index | surface tension liquid-gas [mN/m] | viscosity [mPa·s]
[1], 288.15 K | – | 1.44902 | – | –
[1], 293.15 K | – | 1.44743 | – | –
[1], 298.15 K | – | 1.44585 | – | –
[1], 303.15 K | – | 1.44426 | – | –
[1], 308.15 K | – | 1.44268 | – | –
[1], 313.15 K | – | 1.44109 | – | –
[1], 318.15 K | – | 1.43951 | – | –
[3], 293.15 K | 1417.2 | – | – | 135.42
[3], 298.15 K | 1412.6 | – | – | 100.1
[3], 298.2 K | – | – | 33.45 | –
[3], 303.15 K | 1408 | – | – | 76.34
[3], 308.15 K | 1403.4 | – | – | 59.56
[3], 308.2 K | – | – | 32.99 | –
[3], 313.15 K | 1398.8 | – | – | 47.48
[3], 318.15 K | 1394.2 | – | – | 38.42
[3], 318.2 K | – | – | 32.54 | –
[3], 323.15 K | 1389.7 | – | – | 31.63
[3], 328.15 K | 1385.1 | – | – | 26.4
[3], 328.2 K | – | – | 32.08 | –
[3], 333.15 K | 1380.6 | – | – | 22.36
[3], 338.15 K | 1376.1 | – | – | 19.08
[3], 338.2 K | – | – | 31.63 | –
[3], 343.15 K | 1371.6 | – | – | 16.47
[3], 343.2 K | – | – | 31.4 | –
[3], 348.15 K | 1367.2 | – | – | 14.35
[3], 353.15 K | 1362.8 | – | – | 12.63
[3], 358.15 K | 1358.4 | – | – | 11.14
[3], 363.15 K | 1354.1 | – | – | 9.93

Conditions | molar heat capacity at constant pressure [J/K/mol]
[2] | 578.87

CCCCCC[n+]1ccn(C)c1.O=S(=O)([N-]S(=O)(=O)C(F)(F)F)C(F)(F)F
Conditions | Normal melting temperature [°C]
[3] | -10.5

CCCC[N+]1(C)CCCC1.O=S(=O)([N-]S(=O)(=O)C(F)(F)F)C(F)(F)F
Conditions | Molar enthalpy of transition or fusion [kcal/mol] | Normal melting temperature [°C] | molar heat capacity at constant pressure [J/K/mol]
[2] | – | – | 584.19
[3] | – | -13.4 | –
[4] | 4.83 | – | –

Conditions | mass density, [3] [kg/m3] | refractive index, [1] | viscosity, [3] [mPa·s]
288.15 K | – | 1.42612 | –
293.15 K | 1406.1 | 1.42466 | 101.71
298.15 K | 1401.6 | 1.42319 | 79.57
303.15 K | 1397.2 | 1.42173 | 63.64
308.15 K | 1392.7 | 1.42027 | 51.71
313.15 K | 1388.3 | 1.4188 | 42.67
318.15 K | 1383.8 | 1.41734 | 35.6
323.15 K | 1379.4 | – | 30.07
328.15 K | 1375.1 | – | 25.66
333.15 K | 1370.7 | – | 22.16
338.15 K | 1366.4 | – | 19.21
343.15 K | 1362.1 | – | 16.83
348.15 K | 1357.8 | – | 14.84
353.15 K | 1353.6 | – | 13.21
358.15 K | 1349.3 | – | 11.77
363.15 K | 1345.1 | – | 10.57
